Data published in publication PMC10486429, “Investigations Using Albumin Binders to Modify the Tissue Distribution Profile of Radiopharmaceuticals Exemplified with Folate Radioconjugates” (Cancers, 2023).

Assays:
[1] = Blood clearance of 177Lu-DOTA-ALBs in FVB mice; conditions: for Time to Reach 50% IA (T50%IA): blood activity, value at 3 min set as 100%
Protocol: Immunocompetent female mice (FVB) at the age of 5 to 6 weeks were purchased from Charles River Laboratories (Sulzfeld, Germany) and acclimatized upon arrival for at least 7 days. FVB mice were intravenously injected with ^177Lu-DOTA-ALBs (25 MBq, 1 nmol/mouse, 100 µL PBS containing 0.05% bovine serum albumin (BSA) and 25 μg L-ascorbic acid, n = 3−6 mice per radioligand) followed by the first blood sampling of 3 × 1 μL from a different tail vein 3 min after injection (set as t0). Additional blood samples were taken at defined time points after injection. All collected blood samples from individual mice were measured at the same time using a γ-counter (PerkinElmer Wallac Wizard 1480, Waltham, MA, USA) to obtain decay-corrected values. The counts were set in relation to the initial counts at t0 (set as 100%) to prepare clearance curves by plotting the percentage of retained activity in the blood (% IA) against the time. The blood clearance curves were investigated until the counts of the blood samples were below the linear detection range (Supplementary Materials Section S6). An analysis was performed using GraphPad Prism software (version 8.0) by fitting a non-linear regression curve (exponential, two-phase) to the data points to calculate the serum half-lives. The areas under the curves (AUC0–7days) were calculated by integrating the blood excretion curves over 7 days and setting into relation with the AUC0–7days value obtained for [^177Lu]Lu-DOTA-ALB-1 (set as 1.0) to obtain relative AUC0–7days values. […]
S6. Blood Clearance of 177Lu-DOTA-ALBs
Purpose: The 177Lu-labeled DOTA-ALBs were investigated in vivo in order to assess their blood clearance profile.
Methods: Female, immunocompetent FVB mice were obtained from Charles River Laboratories (Sulzfeld, Germany), at the age of 5–6 weeks and acclimatized for at least 7 days before the start of the in vivo studies. Blood clearance of 177Lu-labeled DOTA-ALBs were determined in n=3–6 mice per radioligand. The radiolabeled DOTA-ALBs ( 25 MBq/nmol) were formulated in PBS pH 7.4 containing 0.05% bovine serum albumin (BSA) and L-ascorbic acid (25 µg per 25 MBq) to prevent radiolytic degradation. Mice were intravenously injected with the respective 177Lu-labeled DOTA-ALB (25 MBq, 1 nmol, 100 µL per mouse). The blood clearance was determined by taking blood samples (3 × 1 µL) from the tail vein using 1 µL-capillaries at 3 min after injection (set as t0) as well as at various timepoints over the following 48 h. In the case of [177Lu]Lu-DOTA-ALB-1 and [177Lu]Lu-DOTA-ALB-3, blood sampling was additionally performed at later time points up to 3 and 7 days, respectively. The collected blood samples were measured in a γ-coun-ter (PerkinElmer, Wallac Wizard 1480, Waltham, MA, USA).

[2] = system: KB tumor-bearing athymic nude mice; assay: Biodistribution of 177Lu-RedFols in KB tumor-bearing mice; type: in vivo, mouse
Protocol: Athymic nude mice (Crl:CD1-Foxn^nu) were kept on a folate-deficient rodent diet (ssniff Spezialdiäten GmbH, Soest, Germany) for at least one week prior to inoculation with the tumor cells. Biodistribution studies were performed approx. two weeks after subcutaneous inoculation with KB tumor cells (5 × 10^6 in 100 μL PBS) (Supplementary Materials Section S12). […] Data were presented as the average ± SD of n = 3−4 mice.
Purpose: Biodistribution studies were performed in KB tumor-bearing athymic nude mice (Crl:CD1-Foxnnu) in order to investigate the tissue distribution profiles of the novel radioconjugates. The aim was to compare the impact of the two different albumin binders (4-(p-iodophenyl)butanoate unit vs. 5-(p-iodophenyl)pentanoate unit), and that of the in-corporation of an AMBA linker adjacent to the albumin binder on the distribution profile of the resulting folate radioconjugates.
Methods: The methods are described in the main article. The mice were sacrificed at […]

[3] = FVB mice, i.v., 25 MBq, 1 nmol, two-phase exponential fit of blood activity

## O=C(O)CN1CCN(CC(=O)O)CCN(CC(=O)NCCC(=O)N[C@@H](CCCCNC(=O)CCCc2ccc(I)cc2)C(=O)O)CCN(CC(=O)O)CC1.[177Lu] [[^177Lu]Lu-DOTA-ALB-1]
[1]; mouse, in vivo
  Rel. Blood AUC0–7days: 1.0
[1]; mouse, in vivo, iv
  % Phase a: 33%
  % Phase b: 67%
  Blood AUC0–7days: 1500 % IA× h
  Half-Life Phase a: 0.006 h
  Half-Life Phase b: 16 h

## O=C(O)CN1CCN(CC(=O)O)CCN(CC(=O)NCCC(=O)N[C@@H](CCCCNC(=O)c2ccc(CNC(=O)CCCCc3ccc(I)cc3)cc2)C(=O)O)CCN(CC(=O)O)CC1.[177Lu] [[^177Lu]Lu-DOTA-ALB-25]
[1]; mouse, in vivo
  Rel. Blood AUC0–7days: 0.3
[1]; mouse, in vivo, iv
  % Phase a: 41%
  % Phase b: 59%
  Blood AUC0–7days: 425 % IA× h
  Half-Life Phase a: 0.7 h
  Half-Life Phase b: 4.5 h

## O=C(O)CN1CCN(CC(=O)O)CCN(CC(=O)NCCC(=O)N[C@@H](CCCCNC(=O)c2ccc(CNC(=O)CCCc3ccc(I)cc3)cc2)C(=O)O)CCN(CC(=O)O)CC1.[177Lu] [[^177Lu]Lu-DOTA-ALB-3]
[1]; FVB mice, 0 h p.i. (t0 set as 100%)
  Retention of activity in the blood: 100 % IA
[1]; FVB mice, 1 h p.i.
  Retention of activity in the blood: 81 ± 9 % IA
[1]; FVB mice, 2 h p.i.
  Retention of activity in the blood: 74 ± 16 % IA
[1]; FVB mice, 4 h p.i.
  Retention of activity in the blood: 71 ± 11 % IA
[1]; FVB mice, 8 h p.i.
  Retention of activity in the blood: 66 ± 10 % IA
[1]; FVB mice, 24 h p.i.
  Retention of activity in the blood: 45 ± 7 % IA
[1]; FVB mice, 48 h p.i.
  Retention of activity in the blood: 28 ± 5 % IA
[1]; FVB mice, 72 h p.i.
  Retention of activity in the blood: 19 ± 2 % IA
[1]; FVB mice, 120 h p.i.
  Retention of activity in the blood: 7 ± 2 % IA
[1]; FVB mice, 144 h p.i.
  Retention of activity in the blood: 5 ± 1 % IA
[1]; FVB mice, 168 h p.i.
  Retention of activity in the blood: 3 ± 1 % IA
[1]; [3]
  Half-Life Phase a: 0.5 h
  Half-Life Phase b: 34 h
[1]; FVB mice, i.v.
  Time to Reach 50% IA (T50%IA): ~ 24 h
[1]; FVB mice, i.v., listed as 3
  Time to Reach 50% IA (T50%IA): ~24 h
[1]; FVB mice, i.v., decay-corrected, over 7 days
  Blood AUC0–7days: 3617 % IA× h
[1]; FVB mice, i.v., share of Phase a in blood excretion curve
  % Phase a: 23%
[1]; FVB mice, i.v., share of Phase b in blood excretion curve
  % Phase b: 77%

## CN1c2c(nc(N)[nH]c2=O)NC[C@H]1CNc1ccc(C(=O)N[C@@H](CCC(=O)N[C@@H](CCCCNC(=O)CN2CCN(CC(=O)O)CCN(CC(=O)O)CCN(CC(=O)O)CC2)C(=O)N[C@@H](CCCCNC(=O)c2ccc(CNC(=O)CCCCc3ccc(I)cc3)cc2)C(=O)O)C(=O)O)cc1 [[^177Lu]Lu-6R-RedFol-25, metal not drawn]
[2]; 1 h p.i.
  Blood, accumulated activity: 13 ± 3 % IA/g
  Bone, accumulated activity: 1.5 ± 0.3 % IA/g
  Intestines, accumulated activity: 1.7 ± 0.3 % IA/g
  KB tumor, accumulated activity: 15 ± 1 % IA/g
  Kidneys, accumulated activity: 22 ± 3 % IA/g
  Liver, accumulated activity: 2.3 ± 0.6 % IA/g
  Lung, accumulated activity: 5.8 ± 1.7 % IA/g
  Muscle, accumulated activity: 1.4 ± 0.1 % IA/g
  Salivary glands, accumulated activity: 4.7 ± 3.3 % IA/g
  Spleen, accumulated activity: 1.7 ± 0.3 % IA/g
  Stomach, accumulated activity: 1.7 ± 0.2 % IA/g
  Tumor-to-blood ratio: 1.2 ± 0.4
  Tumor-to-kidney ratio: 0.67 ± 0.07
  Tumor-to-liver ratio: 6.8 ± 2.4
[2]; 4 h p.i.
  Blood, accumulated activity: 6.1 ± 0.5 % IA/g
  Bone, accumulated activity: 1.1 ± 0.1 % IA/g
  Intestines, accumulated activity: 0.78 ± 0.15 % IA/g
  KB tumor, accumulated activity: 30 ± 3 % IA/g
  Kidneys, accumulated activity: 39 ± 2 % IA/g
  Liver, accumulated activity: 2.1 ± 0.2 % IA/g
  Lung, accumulated activity: 3.4 ± 0.1 % IA/g
  Muscle, accumulated activity: 1.3 ± 0.2 % IA/g
  Salivary glands, accumulated activity: 4.8 ± 3.2 % IA/g
  Spleen, accumulated activity: 1.2 ± 0.1 % IA/g
  Stomach, accumulated activity: 1.1 ± 0.1 % IA/g
  Tumor-to-blood ratio: 4.9 ± 0.2
  Tumor-to-kidney ratio: 0.78 ± 0.11
  Tumor-to-liver ratio: 14 ± 1
[2]; 24 h p.i.
  Blood, accumulated activity: 0.16 ± 0.08 % IA/g
  Bone, accumulated activity: 0.50 ± 0.12 % IA/g
  Intestines, accumulated activity: 0.26 ± 0.06 % IA/g
  KB tumor, accumulated activity: 34 ± 5 % IA/g
  Kidneys, accumulated activity: 48 ± 4 % IA/g
  Liver, accumulated activity: 1.5 ± 0.2 % IA/g
  Lung, accumulated activity: 0.78 ± 0.23 % IA/g
  Muscle, accumulated activity: 1.1 ± 0.6 % IA/g
  Salivary glands, accumulated activity: 3.1 ± 2.0 % IA/g
  Spleen, accumulated activity: 0.60 ± 0.04 % IA/g
  Stomach, accumulated activity: 0.44 ± 0.06 % IA/g
  Tumor-to-blood ratio: 247 ± 101
  Tumor-to-kidney ratio: 0.72 ± 0.15
  Tumor-to-liver ratio: 23 ± 7

## O=C(O)CN1CCN(CC(=O)O)CCN(CC(=O)NCCC(=O)N[C@@H](CCCCNC(=O)CCCCc2ccc(I)cc2)C(=O)O)CCN(CC(=O)O)CC1.[177Lu] [[^177Lu]Lu-DOTA-ALB-24]
[1]; mouse, in vivo
  Rel. Blood AUC0–7days: 0.08
[1]; mouse, in vivo, iv
  % Phase a: 99%
  % Phase b: 1%
  Blood AUC0–7days: 119 % IA× h
  Half-Life Phase a: 0.8 h
  Half-Life Phase b: 8.9 h
